Measurements as given in US10774083B2, “Heterocyclic amide compound” (TAKEDA PHARMACEUTICAL COMPANY LIMITED, priority 2016, dated 2020).

Experiments:
[1] = target: T1, human PRS protein (His-Avi-hEPRS (998-1512)) (Homo sapiens, UniProt P07814); test: PRS inhibitory activity ([32P]pyrophosphate exchange enzyme assay); format: biochemical; conditions: 300 nM test compound; read-out: inhibitory rate (%) of PRS
T1 construct: to construct His-Avi-hEPRS (998-1512) expression plasmid; His tag (N); Avi tag (N); TEV cleavage site (ENLYFQG, then S; inferred from the forward primer hEPRS-TEV-NheF) (N); made in house; host or cells: E. coli BL21(DE3)
T1 sequence (P07814 998-1512 limits assumed): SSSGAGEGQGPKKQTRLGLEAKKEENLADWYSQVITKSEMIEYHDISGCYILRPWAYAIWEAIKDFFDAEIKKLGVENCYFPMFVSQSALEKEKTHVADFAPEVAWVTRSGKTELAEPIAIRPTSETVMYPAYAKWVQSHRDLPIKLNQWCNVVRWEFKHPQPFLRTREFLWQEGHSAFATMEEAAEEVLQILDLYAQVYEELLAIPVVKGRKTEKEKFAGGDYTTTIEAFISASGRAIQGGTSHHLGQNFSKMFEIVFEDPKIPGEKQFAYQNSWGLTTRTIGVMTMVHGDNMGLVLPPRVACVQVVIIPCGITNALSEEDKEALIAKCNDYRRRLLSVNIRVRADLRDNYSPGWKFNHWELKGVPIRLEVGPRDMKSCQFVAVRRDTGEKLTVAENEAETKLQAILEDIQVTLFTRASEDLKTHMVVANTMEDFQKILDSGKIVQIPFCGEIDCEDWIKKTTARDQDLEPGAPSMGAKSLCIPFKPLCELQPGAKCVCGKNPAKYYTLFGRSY
Procedure, shortened: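 Compound was pre-incubated 60 min with 40 nM His-Avi-hEPRS (998-1512) (stock, E. coli-expressed) in Tris pH 7.5/KCl/DTT/Tween/MgCl2. Reaction began with substrate mix containing 300 μM ATP, 160 μM L-proline, 400 μM [32P]pyrophosphate (stock levels) and ran 30 min at room temperature. Charcoal-bound radioactivity was counted; inhibition was relative to no-reaction control.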

[2] = tested on: human ovarian cancer cells A2780; test: proliferation inhibitory activity against human ovarian cancer cell A2780 (CellTiter-Glo); format: cell-based; conditions: A2780, 72 h, 1 μM test compound, 3 days of culture, read-out: proliferation inhibitory rate (%) of A2780 cells
Procedure: The proliferation inhibitory activity of the compound of the present invention against human ovarian cancer cell A2780 was evaluated by the following method.
Human ovarian cancer cells A2780 were seeded in a 384 well culture plate at 1000 cells in 30 μL of medium per well by using RPMI-1640 medium (Wako Pure Chemical Industries, Ltd.) containing 10% fetal bovine serum and penicillin/streptomycin. The next day, 10 μL of RPMI-1640 medium containing the test compound was added to the cells. After 3 days of culture, 20 μL of CellTiter-Glo Luminescent Cell Viability Assay solution (Promega) was added. The luminescence signal was measured using EnVision (PerkinElmer) and the inhibitory rate (%) of the test compound was calculated with a well free of seeding of cell as 100% inhibition.

Row | SMILES | inhibition at 0.3 µM [1] [%] | inhibition at 1 µM [2] [%]
1 | Cn1cc(-c2cc(F)cc(CNC(=O)c3ncnc4nc(C5CCCCO5)n(C)c34)c2)cn1 (centres unmarked) [Example 63, N-(3-fluoro-5-(1-methyl-1H-pyrazol-4-yl)benzyl)-7-methyl-8-(tetrahydro-2H-pyran-2-yl)-7H-purine-6-carboxamide] | 102 | 98
2 | Cn1ncc(-c2cc(F)cc(CNC(=O)c3ncnc4nc(C5CCCC5)[nH]c34)c2)n1 [Example 71, 8-cyclopentyl-N-(3-fluoro-5-(2-methyl-2H-1,2,3-triazol-4-yl)benzyl)-7H-purine-6-carboxamide] | 100 | 70
3 | O=C(NCc1ccccc1Cl)c1nccc2nc(C3CCCC3)[nH]c12 [Example 81, N-(2-chlorobenzyl)-2-cyclopentyl-3H-imidazo[4,5-c]pyridine-4-carboxamide] | 97 | 56
4 | Cn1cc(-c2cccc(CNC(=O)c3nccc4nc(C5CCCC5)[nH]c34)c2)cn1 [Example 84, 2-cyclopentyl-N-(3-(1-methyl-1H-pyrazol-4-yl)benzyl)-3H-imidazo[4,5-c]pyridine-4-carboxamide] | 100 | 97
5 | Cn1cc(-c2cc(F)cc(CNC(=O)c3nccc4nc(C5CCCC5)[nH]c34)c2)cn1 [Example 86, 2-cyclopentyl-N-(3-fluoro-5-(1-methyl-1H-pyrazol-4-yl)benzyl)-3H-imidazo[4,5-c]pyridine-4-carboxamide] | 101 | 97
6 | Cn1cc(-c2cc(F)cc(CNC(=O)c3nccc4nc(C5CCCC5)n(C)c34)c2)cn1 [Example 88, 2-cyclopentyl-N-(3-fluoro-5-(1-methyl-1H-pyrazol-4-yl)benzyl)-3-methyl-3H-imidazo[4,5-c]pyridine-4-carboxamide] | 101 | 99
7 | Cn1cc(-c2cc(F)cc(CNC(=O)c3nccc4nc(C5CCCC5)[nH]c34)c2)nn1 [Example 89, 2-cyclopentyl-N-(3-fluoro-5-(1-methyl-1H-1,2,3-triazol-4-yl)benzyl)-3H-imidazo[4,5-c]pyridine-4-carboxamide] | 101 | 98
8 | Cn1cc(-c2cc(F)c(F)c(CNC(=O)c3nccc4nc(C5CCCC5)[nH]c34)c2)cn1 [Example 90, 2-cyclopentyl-N-(2,3-difluoro-5-(1-methyl-1H-pyrazol-4-yl)benzyl)-3H-imidazo[4,5-c]pyridine-4-carboxamide] | 101 | 96
9 | Cn1cc(-c2cc(F)cc(CNC(=O)c3nccc4nc(C5CCCC5)n(C)c34)c2)nn1 [Example 91, 2-cyclopentyl-N-(3-fluoro-5-(1-methyl-1H-1,2,3-triazol-4-yl)benzyl)-3-methyl-3H-imidazo[4,5-c]pyridine-4-carboxamide] | 101 | 98
10 | Cn1cc(-c2cc(F)cc(CNC(=O)c3nccc4nc(C5CCCC5)n(C)c34)c2)ccc1=O [Example 92, 2-cyclopentyl-N-(3-fluoro-5-(1-methyl-6-oxo-1,6-dihydropyridin-3-yl)benzyl)-3-methyl-3H-imidazo[4,5-c]pyridine-4-carboxamide] | 100 | 99
11 | Cn1cc2c(CNC(=O)c3nccc4nc(C5CCCC5)[nH]c34)cccc2n1 [Example 94, 2-cyclopentyl-N-((2-methyl-2H-indazol-4-yl)methyl)-3H-imidazo[4,5-c]pyridine-4-carboxamide] | 97 | 64
12 | Cn1ncc2cccc(CNC(=O)c3nccc4nc(C5CCCC5)[nH]c34)c21 [Example 95, 2-cyclopentyl-N-((1-methyl-1H-indazol-7-yl)methyl)-3H-imidazo[4,5-c]pyridine-4-carboxamide] | 99 | 56
13 | COc1cc(-c2cc(F)cc(CNC(=O)c3nccc4nc(C5CCCC5)n(C)c34)c2)ccn1 [Example 96, 2-cyclopentyl-N-(3-fluoro-5-(2-methoxypyridin-4-yl)benzyl)-3-methyl-3H-imidazo[4,5-c]pyridine-4-carboxamide] | 101 | 95
14 | Cn1c(C2CCCC2)nc2ccnc(C(=O)NCc3cc(F)cc(-c4cc[nH]c(=O)c4)c3)c21 [Example 97, 2-cyclopentyl-N-(3-fluoro-5-(2-oxo-1,2-dihydropyridin-4-yl)benzyl)-3-methyl-3H-imidazo[4,5-c]pyridine-4-carboxamide] | 101 | 98
15 | Cn1ccc(-c2cc(F)cc(CNC(=O)c3nccc4nc(C5CCCC5)n(C)c34)c2)cc1=O [Example 98, 2-cyclopentyl-N-(3-fluoro-5-(1-methyl-2-oxo-1,2-dihydropyridin-4-yl)benzyl)-3-methyl-3H-imidazo[4,5-c]pyridine-4-carboxamide] | 101 | 98
16 | CCn1c(C2CCCC2)nc2ccnc(C(=O)NCc3cc(F)cc(-c4cnn(C)c4)c3)c21 [Example 101, 2-cyclopentyl-3-ethyl-N-(3-fluoro-5-(1-methyl-1H-pyrazol-4-yl)benzyl)-3H-imidazo[4,5-c]pyridine-4-carboxamide] | 102 | 98
17 | Cn1cc(-c2cc(F)cc(CNC(=O)c3nccc4nc(C5CCOC5)[nH]c34)c2)cn1 (centres unmarked) [Example 103, N-(3-fluoro-5-(1-methyl-1H-pyrazol-4-yl)benzyl)-2-(tetrahydrofuran-3-yl)-3H-imidazo[4,5-c]pyridine-4-carboxamide] | 99 | 73
18 | Cn1cc(-c2cc(F)cc(CNC(=O)c3nccc4nc(CC5CCCC5)[nH]c34)c2)cn1 [Example 104, 2-(cyclopentylmethyl)-N-(3-fluoro-5-(1-methyl-1H-pyrazol-4-yl)benzyl)-3H-imidazo[4,5-c]pyridine-4-carboxamide] | 98 | 68
19 | Cn1cc(NC(=O)c2cccc(CNC(=O)c3nccc4nc(C5CCCC5)[nH]c34)c2)cn1 [Example 106, 2-cyclopentyl-N-(3-((1-methyl-1H-pyrazol-4-yl)carbamoyl)benzyl)-3H-imidazo[4,5-c]pyridine-4-carboxamide] | 99 | 84
20 | Cn1cc(-c2cc(F)cc(CNC(=O)c3nccc4nc(Cc5ccccc5)[nH]c34)c2)cn1 [Example 109, 2-benzyl-N-(3-fluoro-5-(1-methyl-1H-pyrazol-4-yl)benzyl)-3H-imidazo[4,5-c]pyridine-4-carboxamide] | 100 | 84
21 | Cn1cc(-c2cc(F)cc(CNC(=O)c3ncc(F)c4nc(C5CCCC5)n(C)c34)c2)cn1 [Example 113, 2-cyclopentyl-7-fluoro-N-(3-fluoro-5-(1-methyl-1H-pyrazol-4-yl)benzyl)-3-methyl-3H-imidazo[4,5-c]pyridine-4-carboxamide] | 101 | 99
22 | Cn1cc(-c2cc(F)cc(CNC(=O)c3nccc4nc(C5CCCC5)n(CCO)c34)c2)cn1 [Example 115, 2-cyclopentyl-N-(3-fluoro-5-(1-methyl-1H-pyrazol-4-yl)benzyl)-3-(2-hydroxyethyl)-3H-imidazo[4,5-c]pyridine-4-carboxamide] | 101 | 94
23 | Cn1cc(-c2cc(F)cc(CNC(=O)c3nccc4nc(C5CCOC5)n(C)c34)c2)cn1 (centres unmarked) [Example 117, N-(3-fluoro-5-(1-methyl-1H-pyrazol-4-yl)benzyl)-3-methyl-2-(tetrahydrofuran-3-yl)-3H-imidazo[4,5-c]pyridine-4-carboxamide] | 100 | 78
24 | Cn1cc(-c2cc(F)cc(CNC(=O)c3nccc4nc(CC5CC5)[nH]c34)c2)cn1 [Example 126, 2-(cyclopropylmethyl)-N-(3-fluoro-5-(1-methyl-1H-pyrazol-4-yl)benzyl)-3H-imidazo[4,5-c]pyridine-4-carboxamide] | 98 | 56
25 | Cn1cc(-c2cc(F)cc(CNC(=O)c3nccc4nc(C5CCCC5)n(CC(=O)O)c34)c2)cn1 [Example 127, (2-cyclopentyl-4-((3-fluoro-5-(1-methyl-1H-pyrazol-4-yl)benzyl)carbamoyl)-3H-imidazo[4,5-c]pyridin-3-yl)acetic acid] | 101 | 70
